Structures are written as SMILES. “And” between values parts separate entries of the source, which are not always exact repeats. Equal entries are not always repeated. Some results are limits rather than exact numbers.

Holding throughout (format): functional
For assay [1], the species on record is Mus musculus. The assay is described as follows: Dose producing greatest increase in life span expressed as optimum dose (L1210/ara-C I) (qd 1,5,9).
The species named for assay [2] is Mus musculus. In words: Percentage increase in life span after 29->45 days.
For assay [3], the system named is Mus musculus. In words: Weight change on day 8 in L1210/ara-C (I) Lymphoid Leukemia in mice( ip implanted) at a dose of 133 mg/kg/day (qd=1,5,9). Conditions: route intraperitoneal.
The test system of assay [4] is Mus musculus. In words: No of survivors after 45 dose ata dose of 60 mg/kg/day.
Assay [5] is filed under the species Mus musculus. The assay is described as follows: Dose producing greatest increase in life span expressed as optimum dose (L1210/ara-C II) (qd 1).
Assay [6] concerns Mus musculus. The assay is described as follows: Weight change on day 8 in L1210/ara-C (I) Lymphoid Leukemia in mice( ip implanted) at a dose of 60 mg/kg/day (qd=1-5). Conditions: route intraperitoneal.
The species named for assay [7] is Mus musculus. The assay is described as follows: Percentage increase in life span after 7-8 days.
Assay [8] concerns Mus musculus. In words: No of survivors after 45 dose ata dose of 300 mg/kg/day.
For assay [9], the species on record is Mus musculus. In words: Percentage increase in life span after 8->45 days.
Assay [10] concerns Mus musculus. In words: No of survivors after 45 dose ata dose of 133 mg/kg/day.
Assay [11] has as its system Mus musculus. In words: No of survivors after 45 days ata dose of 300 mg/kg/day.
For assay [12], the species on record is Mus musculus. In words: Percentage increase in life span after 35->45 days.
Assay [13] is filed under the species Mus musculus. The assay is described as follows: Percentage increase in life span after 8-9 days.
The subject of assay [14] is Mus musculus. In words: Weight change on day 8 in L1210/ara-C (I) Lymphoid Leukemia in mice( ip implanted) at a dose of 300 mg/kg/day (qd=1). The note with it: route intraperitoneal.
For assay [15], the system named is Mus musculus. In words: No of survivors after 45 days ata dose of 300 60 mg/kg/day.
The subject of assay [16] is Mus musculus. In words: No of survivors after 45 days at a dose of 300 mg/kg/day.
Assay [17] is filed under the species Mus musculus. The assay is described as follows: Percentage increase in life span after 13-15 days.
Assay [18] has as its system Mus musculus. In words: Weight change on day 8 in L1210/ara-C (I) Lymphoid Leukemia in mice( ip implanted) at a dose of 200 mg/kg/day (qd=1). The note with it: route intraperitoneal.
The subject of assay [19] is Mus musculus. The assay is described as follows: (§1) No of survivors after 45 days at a dose of 60 mg/kg/day.
In assay [20] the test system is Mus musculus. The assay is described as follows: Weight change on day 8 in L1210/ara-C (I) Lymphoid Leukemia in mice( ip implanted) at a dose of 60 mg/kg/day (qd=1-15). Conditions: route intraperitoneal.
For assay [21], the species on record is Mus musculus. The assay is described as follows: Percentage increase in life span after 15-18 days.
For assay [22], the system named is Mus musculus. In words: Weight change on day 8 in L1210/ara-C (I) Lymphoid Leukemia in mice( ip implanted) at a dose of 60 mg/kg/day (qd=1-9). Conditions: route intraperitoneal.
Assay [23] relates to Mus musculus. In words: (§2) No of survivors after 45 days at a dose of 100 mg/kg/day.
The species named for assay [24] is Mus musculus. The assay is described as follows: Percentage increase in life span after 17-21 days.
Assay [25] is filed under the species Mus musculus. In words: Percentage increase in life span after 9-12 days.
Assay [26] deals with Mus musculus. Described as §1. The source holds these as a separate data set.
Assay [27] is filed under the species Mus musculus. The assay is described as follows: Dose producing greatest increase in life span expressed as optimum dose (L1210/ara-C I) (qd 1-5).
For assay [28], the species on record is Mus musculus. In words: Dose producing greatest increase in life span expressed as optimum dose (L1210/ara-C I) (qd 1).
Assay [29] is filed under the species Mus musculus. The assay is described as follows: Dose producing greatest increase in life span expressed as optimum dose (L1210/ara-C I) (qd 1-15).
The species entered for assay [30] is Mus musculus. The assay is described as follows: Percentage increase in life span after 12-13days.
Assay [31] has as its system Mus musculus. The assay is described as follows: Weight change on day 8 in L1210/ara-C (I) Lymphoid Leukemia in mice( ip implanted) at a dose of 100 mg/kg/day (qd=1,5,9). Conditions: route intraperitoneal.
Assay [32] concerns Mus musculus. The assay is described as §2. The source holds these as a separate data set.
Assay [33] relates to Mus musculus. In words: (§3) No of survivors after 45 days at a dose of 200 mg/kg/day.
For assay [34], the species on record is Mus musculus. The assay is described as follows: Dose producing greatest increase in life span expressed as optimum dose (L1210/ara-C I) (qd 1-9).
For assay [35], the species on record is Mus musculus. In words: Dose producing greatest increase in life span expressed as optimum dose (L1210/ara-C II) (qd 1-5).
Assay [36] concerns Mus musculus. The assay is described as §3. The source holds these as a separate data set.
For assay [37], the species on record is Mus musculus. In words: Percentage increase in life span after 7 days.
Assay [38] has as its system Mus musculus. The assay is described as follows: No of survivors after 45 days ata dose of 80 mg/kg/day.
For assay [39], the system named is Mus musculus. The assay is described as follows: No of survivors after 45 days ata dose of 400 mg/kg/day.
For assay [40], the species on record is Mus musculus. In words: Percentage increase in life span after 17-29 days.
Assay [41] concerns Mus musculus. In words: Weight change on day 8 in L1210/ara-C (I) Lymphoid Leukemia in mice( ip implanted) at a dose of 80 mg/kg/day (qd=1-5). The note with it: route intraperitoneal.
The species named for assay [42] is Mus musculus. In words: Percentage increase in life span after 17-35 days.
The test system of assay [43] is Mus musculus. In words: Weight change on day 8 in L1210/ara-C (I) Lymphoid Leukemia in mice( ip implanted) at a dose of 400 mg/kg/day (qd=1). Conditions: route intraperitoneal.
Assay [44] concerns Mus musculus. In words: No of survivors after 45 days ata dose of 19 and 38 mg/kg/day.
Assay [45] is filed under the species Mus musculus. The assay is described as follows: Percentage increase in life span after 7-14 days.
The species entered for assay [46] is Mus musculus. In words: Percentage increase in life span after 9-11 days.
In assay [47] the test system is Mus musculus. In words: Weight change on day 8 in L1210/ara-C (I) Lymphoid Leukemia in mice( ip implanted) at a dose of 95 and 190 mg/kg/day (qd=1). Conditions: route intraperitoneal.
In assay [48] the test system is Mus musculus. In words: Weight change on day 8 in L1210/ara-C (I) Lymphoid Leukemia in mice( ip implanted) at a dose of 19 and 38 mg/kg/day (qd=1-5). Conditions: route intraperitoneal.
Assay [49] has as its system Mus musculus. The assay is described as follows: No of survivors after 45 days ata dose of 95 and 190 mg/kg/day.
The species named for assay [50] is Mus musculus. The assay is described as follows: Percentage increase in life span after 10 days.
In assay [51] the test system is Mus musculus. In words: Weight change on day 8 in L1210/ara-C (I) Lymphoid Leukemia in mice( ip implanted) at a dose of 95 and 190 mg/kg/day. The note with it: route intraperitoneal.
For assay [52], the system named is Mus musculus. The assay is described as follows: weight change on day 8 in L1210/ara-C (I) Lymphoid Leukemia in mice( ip implanted) at a dose of 19 and 38 mg/kg/day. The note with it: route intraperitoneal.
The species named for assay [53] is Mus musculus. The assay is described as follows: Percentage increase in life span after 11-12 days.
The subject of assay [54] is Mus musculus. The assay is described as follows: No of survivors after 45 days at a dose of 400 mg/kg/day.
Assay [55] concerns Mus musculus. The assay is described as follows: weight change on day 8 in L1210/ara-C (I) Lymphoid Leukemia in mice( ip implanted) at a dose of 100 mg/kg/day (qd=1,5,9). Conditions: route intraperitoneal.
The test system of assay [56] is Mus musculus. The assay is described as follows: weight change on day 8 in L1210/ara-C (I) Lymphoid Leukemia in mice( ip implanted) at a dose of 60 mg/kg/day (qd=1-5). The note with it: route intraperitoneal.
Assay [57] relates to Mus musculus. In words: No of survivors after 45 days ata dose of 100 mg/kg/day.
Assay [58] concerns Mus musculus. The assay is described as follows: No of survivors after 45 days ata dose of 60 mg/kg/day.

Consider `CCCCCCCCCCCCCCCC(=O)OC[C@H](COP(=O)(O)OP(=O)(O)OC[C@H]1O[C@@H](n2ccc(N)nc2=O)[C@@H](O)[C@@H]1O)OC(=O)CCCCCCCCCCCCCCC`, for which the Optimal dose in [1] was 133 mg·µM/kg; in assay [5] it was 300 mg·µM/kg. The ILS in assay [2] is on record as over 400%; in [7], -11%; in [9], over 400%; in assay [12] it was over 374%; in [13], -11%. Moreover, the values for the Weight change in [3], in assay [6] and in assay [14] were -0.53 g mouse-1, -2.72 g mouse-1 and -0.04 g mouse-1, respectively. In addition, the No. of survivors in assay [4] amounted to 5; in assay [8], 4; in assay [10] it was 5; in assay [11], 0; in assay [15], 0.

Take `Nc1ccn([C@@H]2O[C@H](CO)[C@@H](O)[C@@H]2O)c(=O)n1` [CYTARABINE]: the Optimal dose was 100 µM/kg in assay [1]; 60 µM/kg in assay [27]; 200 µM/kg in assay [28]; 60 µM/kg in [29]; 60 µM/kg in [34]; 100 µM/kg and 200 µM/kg and 300 µM/kg in assay [35]. The No. of survivors in assay [16], in assay [19], in assay [23], in [26], in [32] and in [33] was 0 in each case. Besides, the No. of survivors in [36] stood at 0. The ILS in assay [17] is 65%; in assay [21], 82%; in [24] it was 147%; in assay [25] it was 17%; in [7] it was -22% and -11%; in [30], 50%. For the same compound, the ILS in assay [37] is on record as -22%. The Weight change is given as 3.6 g mouse-1 in [18]; -0.93 g mouse-1 in [20]; -0.87 g mouse-1 in assay [6]; -1.8 g mouse-1 in [22]; 2.6 g mouse-1 in assay [31].

As to `CCCCCCCCCCCCCCCC(=O)OC[C@@H](COP(=O)(O)OP(=O)(O)OC[C@H]1O[C@@H](n2ccc(N)nc2=O)[C@@H](O)[C@@H]1O)OC(=O)CCCCCCCCCCCCCCC`, the No. of survivors in [38] and in assay [39] was 0 each time. Moreover, the figures for the ILS in assay [40] and in [42] were 121% and 100%, respectively. In addition, the figures for the Weight change in assay [41] and in [43] were -0.48 g mouse-1 and 0.18 g mouse-1, respectively.

With `CCCCCCCCCCCCCCCC(=O)OC[C@H](COP(=O)(O)O)OC(=O)CCCCCCCCCCCCCCC.Nc1ccn([C@@H]2O[C@H](COP(=O)(O)O)[C@@H](O)[C@@H]2O)c(=O)n1`, the No. of survivors in [44] and in assay [49] was 0 each time. The figures for the ILS in assay [45] and in assay [46] were 16% and 5%, respectively. Further, the Weight change is listed as -0.5 g mouse-1 in assay [47] and -1.08 g mouse-1 in assay [48].

`CCCCCCCCCCCCCCCC(=O)OC[C@@H](COP(=O)(O)O)OC(=O)CCCCCCCCCCCCCCC.Nc1ccn([C@@H]2O[C@H](COP(=O)(O)O)[C@@H](O)[C@@H]2O)c(=O)n1`: the No. of survivors in assay [44] and in assay [49] was 0 in each case. For the same compound, the figures for the ILS in assay [50] and in assay [53] were 5% and 16%, respectively. In addition, the results for the Weight change in assay [51] and in assay [52] were -0.82 g mouse-1 and -1.58 g mouse-1, respectively.

Compound `CCCCCCCCCCCCCCCC(=O)OCC(COP(=O)(O)OP(=O)(O)OC[C@H]1O[C@@H](n2ccc(N)nc2=O)[C@@H](O)[C@@H]1O)OC(=O)CCCCCCCCCCCCCCC` (mixture of isomers) had an Optimal dose in [1] of 100 mg·µM/kg. For the same compound, the ILS in [17] was 233%; in assay [25], over 400%; in [30], 317%. Also, the No. of survivors in [54] worked out at 4; in [57], 2; in assay [58], 2. The results for the Weight change in [55], in assay [56] and in assay [43] were -1.35 g mouse-1, -2.92 g mouse-1 and -2.07 g mouse-1, respectively.

For the origin of these results see ChEMBL document CHEMBL1124302, “Nucleoside conjugates. 10. Synthesis and antitumor activity of 1-beta-D-arabinofuranosylcytosine 5'-diphosphate-1,2-dipalmitins” (J Med Chem, 1988).
